The source of these data is ChEMBL document CHEMBL5465560, “Selectivity Literature for EUbOPEN Chemogenomic Library” (2024).

Test [1] deals with Calcium/calmodulin-dependent protein kinase type II subunit gamma (Homo sapiens) (UniProt Q13555). Put plainly: Selectivity interaction (Kinase panel (KiNativ target engagement assay in Jurkat cells)) EUB0001635a CAMK2G. As to conditions: Selectivity number of off-targets 0.0, Selectivity number of targets 233.0, Source Knowledge https://www.sciencedirect.com/science/article/pii/S2451945619300674?via%3Dihub, at 1 µM. Type of test: cell-based.

Test [2] deals with T1, Megakaryocyte-associated tyrosine-protein kinase (Homo sapiens) (UniProt P42679).
T1 sequence (whole entry): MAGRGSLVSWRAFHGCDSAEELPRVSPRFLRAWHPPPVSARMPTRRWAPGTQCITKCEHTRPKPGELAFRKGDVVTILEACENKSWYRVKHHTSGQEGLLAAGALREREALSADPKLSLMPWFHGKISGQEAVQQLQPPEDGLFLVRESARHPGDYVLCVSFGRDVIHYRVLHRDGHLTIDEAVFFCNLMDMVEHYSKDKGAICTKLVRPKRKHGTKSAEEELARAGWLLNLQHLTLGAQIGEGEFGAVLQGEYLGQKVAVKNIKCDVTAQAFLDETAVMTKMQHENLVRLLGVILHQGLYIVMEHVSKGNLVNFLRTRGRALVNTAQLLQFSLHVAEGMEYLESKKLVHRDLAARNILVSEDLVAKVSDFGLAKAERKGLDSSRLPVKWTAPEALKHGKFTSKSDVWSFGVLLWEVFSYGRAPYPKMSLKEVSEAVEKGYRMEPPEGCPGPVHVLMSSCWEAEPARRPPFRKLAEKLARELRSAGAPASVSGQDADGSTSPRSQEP
Put plainly: Selectivity interaction (KinomeScan (DiscoverX)) EUB0000229b MATK. As to conditions: at 10 µM.

The target in test [3] is Diacylglycerol kinase alpha (Homo sapiens) (UniProt P23743). Kind of test: Selectivity interaction (ActivX KiNativ screen (ex vivo kinase selectivity in human PBMCs)) EUB0001619a DGKA. Type of test: cell-based. As to conditions: PBMC, at 1 µM.
The target in test [4] is Casein kinase I isoform alpha (Homo sapiens, UniProt P48729). Kind of test: Selectivity interaction (ActivX KiNativ screen (kinase selectivity in THP-1 cell lysates)) EUB0000639a CSNK1A1. It counts as subcellular. As to conditions: lysate, at 0.2 µM.
Test [5] deals with T2, Serine/threonine-protein kinase 4 (Homo sapiens) (UniProt Q13043).
T2 sequence (whole entry): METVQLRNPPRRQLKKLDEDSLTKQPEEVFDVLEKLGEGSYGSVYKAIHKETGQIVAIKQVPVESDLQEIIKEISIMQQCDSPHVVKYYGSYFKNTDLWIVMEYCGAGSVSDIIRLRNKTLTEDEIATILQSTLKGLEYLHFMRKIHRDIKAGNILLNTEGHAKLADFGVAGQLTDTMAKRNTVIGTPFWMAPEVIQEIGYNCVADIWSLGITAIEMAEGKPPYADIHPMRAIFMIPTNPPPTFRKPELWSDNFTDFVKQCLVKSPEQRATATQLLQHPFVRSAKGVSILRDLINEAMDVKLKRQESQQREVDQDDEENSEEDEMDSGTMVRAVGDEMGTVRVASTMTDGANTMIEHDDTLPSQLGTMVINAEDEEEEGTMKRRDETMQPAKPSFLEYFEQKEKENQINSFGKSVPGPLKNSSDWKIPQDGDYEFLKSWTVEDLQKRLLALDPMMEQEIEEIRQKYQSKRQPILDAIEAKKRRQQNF
Put plainly: Selectivity interaction (Kinase panel (Invitrogen)) EUB0000639a STK4. As to conditions: at 200 nM.

In test [6] the target is T3, Serine/threonine-protein kinase Chk1 (Homo sapiens) (UniProt O14757).
T3 sequence (whole entry): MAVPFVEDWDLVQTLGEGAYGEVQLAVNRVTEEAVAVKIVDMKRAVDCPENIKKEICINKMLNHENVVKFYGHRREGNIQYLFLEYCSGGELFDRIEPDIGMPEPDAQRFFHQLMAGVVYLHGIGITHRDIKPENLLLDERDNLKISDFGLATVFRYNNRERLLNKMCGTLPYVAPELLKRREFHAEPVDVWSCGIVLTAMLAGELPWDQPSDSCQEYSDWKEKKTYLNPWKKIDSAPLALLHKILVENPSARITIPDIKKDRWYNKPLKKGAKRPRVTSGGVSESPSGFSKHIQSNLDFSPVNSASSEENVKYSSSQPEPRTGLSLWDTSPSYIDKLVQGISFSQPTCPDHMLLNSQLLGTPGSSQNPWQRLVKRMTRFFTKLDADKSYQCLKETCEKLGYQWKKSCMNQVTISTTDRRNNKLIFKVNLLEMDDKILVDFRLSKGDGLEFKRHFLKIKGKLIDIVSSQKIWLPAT
Put plainly: Selectivity interaction (Kinase screening (Upstate/Millipore)) EUB0000604a CHEK1.

Test [7] addresses Dual specificity mitogen-activated protein kinase kinase 1 (Homo sapiens, UniProt Q02750). As to conditions: at 10 µM.
Test [8] addresses Serine/threonine-protein kinase PAK 2 (Homo sapiens) (UniProt Q13177). Kind of test: Selectivity interaction (KinomeScan (DiscoverX)) EUB0000695a PAK2. As to conditions: at 100 nM.
In test [9] the target is Dual specificity tyrosine-phosphorylation-regulated kinase 1B (Homo sapiens, UniProt Q9Y463). Kind of test: Selectivity interaction (ProQinase) EUB0000171b DYRK1B.
Test [10] concerns the target Bromodomain adjacent to zinc finger domain protein 2A (Homo sapiens, UniProt Q9UIF9). Kind of test: Selectivity interaction (Bromodomain panel (DSF asssay)) EUB0000270b BAZ2A.
Test [11] deals with Ribosomal protein S6 kinase alpha-6 (Homo sapiens, UniProt Q9UK32). Put plainly: Selectivity interaction (KinomeScan (DiscoverX)) EUB0000092b RPS6KA6. Particulars: at 10 µM.
The target of test [12] is Myosin light chain kinase family member 4 (Homo sapiens, UniProt Q86YV6). Put plainly: Selectivity interaction (NanoBRET assay (HEK293T cells)) EUB0001550a MYLK4. Type of test: cell-based, HEK-293T.
Test [13] concerns the target T4, cAMP-dependent protein kinase catalytic subunit PRKX (Homo sapiens) (UniProt P51817).
T4 sequence (whole entry): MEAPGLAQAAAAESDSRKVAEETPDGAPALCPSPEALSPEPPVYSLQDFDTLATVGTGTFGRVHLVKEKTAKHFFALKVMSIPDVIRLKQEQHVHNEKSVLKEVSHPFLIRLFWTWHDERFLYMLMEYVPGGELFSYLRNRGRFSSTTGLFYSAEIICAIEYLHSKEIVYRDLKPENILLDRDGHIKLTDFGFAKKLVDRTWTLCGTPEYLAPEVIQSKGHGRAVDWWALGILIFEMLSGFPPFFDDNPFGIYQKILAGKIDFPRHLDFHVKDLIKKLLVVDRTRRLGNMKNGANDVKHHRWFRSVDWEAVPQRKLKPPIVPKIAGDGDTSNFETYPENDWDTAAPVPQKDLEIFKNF
Kind of test: Selectivity interaction (KinomeScan (DiscoverX)) EUB0000045b PRKX.

In test [14] the target is ALK tyrosine kinase receptor (Homo sapiens, UniProt Q9UM73). Kind of test: Selectivity interaction (KinomeScan (DiscoverX)) EUB0000595a ALK. Particulars: at 10 µM.
Sequence of ALK tyrosine kinase receptor (Q9UM73 19-1620 limits assumed): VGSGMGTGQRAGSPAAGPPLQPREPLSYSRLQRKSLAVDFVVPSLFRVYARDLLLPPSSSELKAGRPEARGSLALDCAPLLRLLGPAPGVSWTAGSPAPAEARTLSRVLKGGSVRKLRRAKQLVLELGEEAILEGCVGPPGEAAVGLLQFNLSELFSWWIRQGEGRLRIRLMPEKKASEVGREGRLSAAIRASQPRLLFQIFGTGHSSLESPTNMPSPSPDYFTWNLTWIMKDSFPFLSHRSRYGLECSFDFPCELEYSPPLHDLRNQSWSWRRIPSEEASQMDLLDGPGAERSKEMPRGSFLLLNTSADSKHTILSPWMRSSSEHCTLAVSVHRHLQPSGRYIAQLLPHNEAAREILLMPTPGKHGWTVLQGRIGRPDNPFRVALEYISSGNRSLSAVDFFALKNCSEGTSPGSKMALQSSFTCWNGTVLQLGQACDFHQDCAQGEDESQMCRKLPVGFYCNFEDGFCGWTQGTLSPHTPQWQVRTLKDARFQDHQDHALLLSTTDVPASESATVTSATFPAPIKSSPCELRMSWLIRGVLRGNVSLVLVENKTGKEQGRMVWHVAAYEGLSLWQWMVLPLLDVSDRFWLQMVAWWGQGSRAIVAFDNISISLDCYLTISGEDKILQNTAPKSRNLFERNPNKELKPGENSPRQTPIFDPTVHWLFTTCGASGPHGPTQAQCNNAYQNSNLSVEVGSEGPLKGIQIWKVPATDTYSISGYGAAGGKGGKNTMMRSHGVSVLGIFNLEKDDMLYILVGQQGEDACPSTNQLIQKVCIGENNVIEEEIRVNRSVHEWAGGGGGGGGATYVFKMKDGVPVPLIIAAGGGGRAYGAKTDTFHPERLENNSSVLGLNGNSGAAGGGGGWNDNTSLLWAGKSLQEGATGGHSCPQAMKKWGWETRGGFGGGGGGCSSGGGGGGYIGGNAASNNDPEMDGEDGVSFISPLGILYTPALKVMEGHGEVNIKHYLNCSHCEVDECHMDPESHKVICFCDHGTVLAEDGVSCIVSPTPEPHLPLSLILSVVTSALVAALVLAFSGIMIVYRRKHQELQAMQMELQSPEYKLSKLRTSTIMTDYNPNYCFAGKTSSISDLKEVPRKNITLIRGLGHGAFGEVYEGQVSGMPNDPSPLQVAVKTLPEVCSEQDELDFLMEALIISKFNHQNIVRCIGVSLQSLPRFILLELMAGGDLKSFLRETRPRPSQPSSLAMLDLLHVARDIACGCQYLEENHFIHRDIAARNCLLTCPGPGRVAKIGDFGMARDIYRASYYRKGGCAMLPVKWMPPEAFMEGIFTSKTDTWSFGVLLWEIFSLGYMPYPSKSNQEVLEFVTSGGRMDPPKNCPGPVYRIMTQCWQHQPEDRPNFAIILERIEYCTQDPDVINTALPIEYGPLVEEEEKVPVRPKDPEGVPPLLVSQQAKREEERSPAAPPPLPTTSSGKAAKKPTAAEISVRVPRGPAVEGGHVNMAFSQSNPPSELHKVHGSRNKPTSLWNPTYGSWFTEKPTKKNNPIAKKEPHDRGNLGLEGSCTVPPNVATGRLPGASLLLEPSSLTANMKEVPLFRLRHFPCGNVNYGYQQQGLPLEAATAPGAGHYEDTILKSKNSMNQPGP

Sequence of Dual specificity tyrosine-phosphorylation-regulated kinase 1B (Q9Y463 whole entry, looked up, the tested form may be a part): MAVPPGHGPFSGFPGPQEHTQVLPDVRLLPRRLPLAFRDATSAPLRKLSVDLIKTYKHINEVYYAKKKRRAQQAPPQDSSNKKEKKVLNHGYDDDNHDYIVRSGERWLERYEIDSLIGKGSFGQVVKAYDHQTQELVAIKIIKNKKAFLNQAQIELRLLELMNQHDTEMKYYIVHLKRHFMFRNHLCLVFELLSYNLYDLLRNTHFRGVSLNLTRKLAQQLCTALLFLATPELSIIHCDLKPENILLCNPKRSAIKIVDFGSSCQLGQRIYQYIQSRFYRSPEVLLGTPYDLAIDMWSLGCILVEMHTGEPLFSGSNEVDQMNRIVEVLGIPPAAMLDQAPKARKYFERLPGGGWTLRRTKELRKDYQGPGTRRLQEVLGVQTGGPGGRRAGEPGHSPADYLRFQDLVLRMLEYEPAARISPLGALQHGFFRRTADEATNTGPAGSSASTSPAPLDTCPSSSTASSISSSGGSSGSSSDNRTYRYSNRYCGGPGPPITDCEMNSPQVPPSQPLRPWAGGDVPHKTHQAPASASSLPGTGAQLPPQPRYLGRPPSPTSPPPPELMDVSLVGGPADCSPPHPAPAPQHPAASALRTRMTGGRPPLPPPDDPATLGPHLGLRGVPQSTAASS
Sequence of Casein kinase I isoform alpha (P48729 2-337 limits assumed): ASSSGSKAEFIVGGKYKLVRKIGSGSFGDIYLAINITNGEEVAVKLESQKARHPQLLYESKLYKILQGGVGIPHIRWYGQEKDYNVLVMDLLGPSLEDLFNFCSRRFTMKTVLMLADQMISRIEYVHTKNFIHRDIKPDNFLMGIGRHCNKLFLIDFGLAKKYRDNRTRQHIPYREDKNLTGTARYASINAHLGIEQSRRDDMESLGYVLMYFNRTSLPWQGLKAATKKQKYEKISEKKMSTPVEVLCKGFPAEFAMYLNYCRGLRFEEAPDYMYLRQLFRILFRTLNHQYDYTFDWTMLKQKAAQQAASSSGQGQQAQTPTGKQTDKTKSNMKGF
Sequence of Dual specificity mitogen-activated protein kinase kinase 1 (Q02750 whole entry): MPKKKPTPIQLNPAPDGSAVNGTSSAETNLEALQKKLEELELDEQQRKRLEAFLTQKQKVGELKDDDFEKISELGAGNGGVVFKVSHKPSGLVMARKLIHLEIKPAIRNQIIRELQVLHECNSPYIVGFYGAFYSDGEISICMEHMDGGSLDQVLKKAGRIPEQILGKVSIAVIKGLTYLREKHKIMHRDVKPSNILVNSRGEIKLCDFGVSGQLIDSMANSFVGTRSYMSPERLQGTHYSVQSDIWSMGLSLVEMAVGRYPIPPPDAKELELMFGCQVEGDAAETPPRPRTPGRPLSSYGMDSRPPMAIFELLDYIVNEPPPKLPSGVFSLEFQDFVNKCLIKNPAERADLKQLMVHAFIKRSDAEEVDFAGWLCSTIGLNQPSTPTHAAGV
Sequence of Myosin light chain kinase family member 4 (Q86YV6 whole entry): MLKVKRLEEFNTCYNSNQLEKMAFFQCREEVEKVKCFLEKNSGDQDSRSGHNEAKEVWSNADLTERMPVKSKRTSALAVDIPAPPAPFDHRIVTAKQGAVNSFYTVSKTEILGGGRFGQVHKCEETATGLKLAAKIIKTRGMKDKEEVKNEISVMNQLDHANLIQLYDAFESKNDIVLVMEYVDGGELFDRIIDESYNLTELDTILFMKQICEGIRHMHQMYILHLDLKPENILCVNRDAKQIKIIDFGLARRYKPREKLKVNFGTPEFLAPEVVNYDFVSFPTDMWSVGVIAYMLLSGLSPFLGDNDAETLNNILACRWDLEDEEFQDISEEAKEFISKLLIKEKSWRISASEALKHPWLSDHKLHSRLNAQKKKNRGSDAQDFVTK
Sequence of Diacylglycerol kinase alpha (Homo sapiens) (P23743 whole entry, canonical isoform): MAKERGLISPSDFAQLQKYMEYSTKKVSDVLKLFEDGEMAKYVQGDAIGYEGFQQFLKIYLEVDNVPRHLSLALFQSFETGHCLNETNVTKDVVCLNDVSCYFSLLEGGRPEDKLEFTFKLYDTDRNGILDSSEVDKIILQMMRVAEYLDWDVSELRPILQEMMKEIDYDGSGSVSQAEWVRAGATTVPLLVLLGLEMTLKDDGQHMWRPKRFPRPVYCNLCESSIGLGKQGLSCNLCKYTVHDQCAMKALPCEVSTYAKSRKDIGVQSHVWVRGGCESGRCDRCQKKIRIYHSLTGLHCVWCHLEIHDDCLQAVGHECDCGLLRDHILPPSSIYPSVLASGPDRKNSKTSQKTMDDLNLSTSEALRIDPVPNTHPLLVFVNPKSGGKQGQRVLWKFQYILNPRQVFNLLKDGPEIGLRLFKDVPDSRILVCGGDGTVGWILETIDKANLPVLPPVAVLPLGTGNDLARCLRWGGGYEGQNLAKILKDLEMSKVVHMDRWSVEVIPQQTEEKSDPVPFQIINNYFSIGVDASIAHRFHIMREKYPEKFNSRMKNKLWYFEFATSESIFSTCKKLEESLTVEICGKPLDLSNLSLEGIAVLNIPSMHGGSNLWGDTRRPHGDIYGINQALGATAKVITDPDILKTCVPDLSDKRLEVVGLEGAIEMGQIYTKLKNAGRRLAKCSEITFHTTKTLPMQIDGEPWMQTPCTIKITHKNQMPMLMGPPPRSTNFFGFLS
Sequence of Calcium/calmodulin-dependent protein kinase type II subunit gamma (Homo sapiens) (Q13555 whole entry): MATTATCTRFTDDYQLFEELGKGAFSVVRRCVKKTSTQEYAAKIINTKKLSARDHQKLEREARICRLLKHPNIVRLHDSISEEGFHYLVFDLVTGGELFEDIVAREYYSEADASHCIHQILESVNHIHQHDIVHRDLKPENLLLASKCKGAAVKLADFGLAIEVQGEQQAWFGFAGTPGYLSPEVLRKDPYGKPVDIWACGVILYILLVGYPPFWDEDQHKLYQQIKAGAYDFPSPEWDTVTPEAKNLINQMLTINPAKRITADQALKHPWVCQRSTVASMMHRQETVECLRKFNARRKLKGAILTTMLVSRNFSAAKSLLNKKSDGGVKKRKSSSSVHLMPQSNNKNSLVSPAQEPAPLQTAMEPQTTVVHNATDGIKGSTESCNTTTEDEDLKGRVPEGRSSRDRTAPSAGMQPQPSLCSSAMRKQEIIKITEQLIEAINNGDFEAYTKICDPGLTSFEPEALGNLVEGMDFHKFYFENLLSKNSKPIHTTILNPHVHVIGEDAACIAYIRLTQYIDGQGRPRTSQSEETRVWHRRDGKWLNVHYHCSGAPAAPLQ

For `C=CC(=O)Nc1ccc(C(=O)Nc2[nH]nc3c2CN(C(=O)N[C@H](CN(C)C)c2ccccc2)C3(C)C)cc1`, the % of engagement in test [1] was determined as 35.8%. The compound `COc1cc(N(C)c2ccnc3ccc(C(F)(F)F)cc23)cc(OC)c1OC` came in with a % binding in test [2] of 81%. In the case of `N#Cc1cccc(-c2c[nH]c3ncnc(N4CCOCC4)c23)c1`, the % of inhibition in [3] is -9%. In the case of `CC[C@@H]1[C@H](F)C(=O)N[C@@H]1COc1nccc2cc(C(N)=O)c(OC)cc12` [ZIMLOVISERTIB], the % of inhibition is -3.6% in test [4] and 13.8% in [5]. As to `Cc1cnc(Nc2ccc(F)cc2Cl)nc1-c1c[nH]c(C(=O)N[C@H](CO)c2cccc(Cl)c2)c1`, the % of inhibition in test [6] worked out at 40%. As for `CC(=O)Nc1cccc(-n2c(=O)n(C3CC3)c(=O)c3c(Nc4ccc(I)cc4F)n(C)c(=O)c(C)c32)c1`, the % of control in test [7] came to 28%. For the compound `Cc1cc(F)c(C(=O)Nc2cccc(-c3nncn3C(C)C)n2)cc1-n1cnc(C2CC2)c1`, the % of control in [8] stood at 100%. As for `C=CC(=O)Nc1cccc(C(=O)Nc2ccc(Nc3cc(-c4[nH]c(SC)nc4C)ccn3)cc2)c1`, the % of control came to 85% in test [9] (at 1 µM) and 53% in test [9] (at 5 µM). Consider `Cc1cc(CN)cc(C)c1-c1ncn(C)c1-c1cncn1C`, for which the dTM in [10] was -1.5 K. For `CCC(=O)N1CCN(c2ccc(-n3c(=O)ccc4cnc5ccc(-c6cnc7ccccc7c6)cc5c43)cc2C(F)(F)F)CC1`, the % of control in test [11] was found to be 86%. `CN(C)CC#Cc1ccc2[nH]c3c(c2c1)-c1nc(N)ncc1CCC3`: the IC50 in test [12] amounted to 0.27 µM. Turning to `C=CC(=O)Nc1cc(-n2c(=O)ccc3cnc4ccc(-c5ccc(NS(C)(=O)=O)cc5)cc4c32)ccc1C`, the % of control in test [13] (at 1 µM) is 77%; in test [13] (at 10 µM) it was 74%.

For the compound `COCC(=O)NC/C=C/c1ccc2ncnc(Nc3ccc(Oc4ccc(C)nc4)c(C)c3)c2c1` [CP-724714], in test [14], the % of control was found to be 100%.

By IC50 is commonly meant the point on the concentration scale where inhibition reaches its midpoint. High values mean weaker potency, low ones greater potency.
